Assay [1] concerns the target T1, TACE (catalytic domain of the recombinant TACE protein) (Homo sapiens, UniProt P78536).
T1 construct: The catalytic domain of the recombinant TACE protein was expressed and purified; made in house
The experiment in a line: TACE FRET assay using TACE Cat. Format: biochemical. The conditions noted are these: pro-TNF-α substrate peptide. The method, then: The procedure is essentially as described in Jin, G. et al., Analytical Biochemistry (2002) 302, 269-275, incorporated by reference herein in its entirety. […] K is the IC50. Generally, n and B are floated, noting that n (hill slope) should be close to 1 and B (background offset) to 0.
Pro-TNF-α substrate peptide Abz-[…]-Dpa (AnaSpec, San Jose, Calif., WARC-1) was prepared as a 2 mM stock solution in the TACE assay buffer (50 mM Tris-HCI, pH 7.4, 25 mM NaCl, 4% Glycerol, 0.005% Brij 35). The catalytic domain of the recombinant TACE protein was expressed and purified. The TACE protein (1 ug/ml) was pretreated with the inhibitors at various concentrations for 10 min at room temperature. The reaction was initiated by the addition of the substrate peptide. The increase in fluorescence was monitored at an Excitation of 320 nm and an Emission of 420 nm over a period of 10 min. The initial rate (slope) of the reaction was determined using a fluorescence plate reader (Molecular Devices, Spectra Max Gemini XS).

Assay [2] deals with LPS-induced TNF-α secretion in human whole blood. In words: Human whole blood assay for LPS-induced TNF-α secretion. Type of assay: cell-based. The conditions noted are these: Homo sapiens, LPS 100 ng/ml, read-out: TNF Secretion HWB IC50. As for the experimental part: procedure is essentially as described in Newton, R. C., et al., (2001) Ann Rheum […]32, incorporated by reference herein in its entirety. The basic measurement of the assay is the percentage of inhibition of TNF-α secretion and the IC50 determination by a […] model-39 of LSW data analysis tool. 350 μl of fresh human blood drawn from healthy volunteers were pre-incubated with compounds for one hour at the various concentrations at 37° C. with turning generally, the final DMSO concentrations should be kept below 0.2%. At the end of cubation, LPS (Sigma, L2262) was added to the blood at 100 ng/ml and the samples were further incubated for 4 hours or overnight at 37° C. with constant rotation. At the end of the incubation period, 650 μl of serum-free medium was added to the blood samples and the samples were centrifuged at 1500 rpm for 15 minutes. 500 μl of supernate was collected and frozen at -80° C. The TNF-α and other proinflammatory cytokines were detected by ELISA assay according to the manufacturer's instruction (Biosource International, Inc., Camarillo, Calif.).

A further assay has as its target T2, recombinant human MMP-2 (Homo sapiens, UniProt P08253).
T2 sequence (P08253 110-660): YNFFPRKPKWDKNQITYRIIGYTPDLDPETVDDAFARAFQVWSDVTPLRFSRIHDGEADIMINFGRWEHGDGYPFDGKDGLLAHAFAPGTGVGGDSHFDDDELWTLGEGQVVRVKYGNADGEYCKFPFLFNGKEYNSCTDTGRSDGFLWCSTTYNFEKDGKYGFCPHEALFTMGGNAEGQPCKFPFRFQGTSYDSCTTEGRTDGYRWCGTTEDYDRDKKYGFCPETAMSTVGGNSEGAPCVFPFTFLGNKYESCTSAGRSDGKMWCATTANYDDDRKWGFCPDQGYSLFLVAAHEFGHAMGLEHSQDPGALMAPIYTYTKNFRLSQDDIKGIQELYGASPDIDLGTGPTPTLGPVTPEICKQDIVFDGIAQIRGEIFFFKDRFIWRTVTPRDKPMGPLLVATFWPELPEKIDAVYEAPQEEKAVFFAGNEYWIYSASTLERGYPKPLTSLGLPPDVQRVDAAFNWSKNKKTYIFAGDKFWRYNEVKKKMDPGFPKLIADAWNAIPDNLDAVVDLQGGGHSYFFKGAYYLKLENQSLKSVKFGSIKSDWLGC
In words: In-vitro fluorescence assay of MMP-2 activity. Type of assay: biochemical.

The target of the next assay is MMP-13 (Homo sapiens, UniProt P45452). The experiment in a line: In-vitro fluorescence assay of MMP-13 activity. Format: biochemical. The method, then: See Knight, C. […] […].
The method was essentially the same as for the determination of MMP-1 activity, described above, except that the final concentration of purified MMP in the assay was 0.5 nM, prepared by diluting with the assay buffer.

Assay [3] has as its system TNF-α secretion in Raw 264.7 cells. The experiment in a line: Cell-based assay for inhibition of TNF-α secretion in Raw cells. The conditions noted are these: Mus musculus, RAW264.7, LPS 100 ng/ml, 4 hr. As for the experimental part: The basic measurement of the assay is the percentage of inhibition of TNF-α secretion and the IC50 determination by a fitting with the model-39 of LSW data analysis tool. […] Cells are split twice a week by scraping and 1 to 10 or 20 dilutions. For testing compounds, cells are cultured to confluence and are seeded the day before the experiment in 24 well culture dishes at 0.5 to 1 million/ml well. On the next morning, the medium from the overnight culture is replaced with the fresh growth medium. The compounds are added at various concentration at the 0.2% of final DMSO concentrations (10 μl of a 20% DMSO solution containing testing compounds is added to each well). The cells are pre-incubated with compounds for 1 hr. LPS (Sigma, L2262) is added to cells at a final concentration of 100 ng/ml (10 μl of a […] LPS solution freshly diluted from a 1 mg/ml LPS stock solution in PBS is added to each well) and cells are further incubated for 4 hr at 37° C. 1 ml of the supernatant was collected, cells are spun down and the supernatants are frozen at −80° C. until use. The TNF-α and other proinflammatory cytokines were detected by an ELISA assay according to the manufacturer's instructions (Biosource International, Inc., Camarillo, Calif. (For IL-1b measurement in Raw cells, one round of freeze and thaw of the cells was required).

Where two headings read alike, the source gives them in different places.

T1 sequence (P78536 223-474 limits assumed): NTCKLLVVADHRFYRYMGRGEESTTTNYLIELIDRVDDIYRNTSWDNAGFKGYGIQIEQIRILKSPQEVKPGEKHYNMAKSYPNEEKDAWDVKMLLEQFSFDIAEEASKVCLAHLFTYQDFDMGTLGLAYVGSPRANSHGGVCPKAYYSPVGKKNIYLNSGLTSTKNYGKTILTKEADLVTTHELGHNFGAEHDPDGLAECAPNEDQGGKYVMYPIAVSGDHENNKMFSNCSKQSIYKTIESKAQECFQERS
Description for recombinant human MMP-2: A continuous assay was used in which the substrate is a synthetic peptide containing a fluorescent group (7-methoxycoumarin; Mca) that is quenched by energy transfer to a 2,4-dinitrophenyl group. […] The substrate used was Mca-PQGL-(3-[2,4-dinitrophenyl]-L-2,3-diaminopropionyl)-AR-OH (denoted as Wammp-5, custom synthesized by AnaSpec, Inc.). The assay buffer consisted of 50 mM Hepes (pH 7.4), 100 mM NaCl, 5 mM CaCI2, and 0.005% Brij-35. Each well of black polystyrene 96-well plates contained a 200 μL reaction mixture consisting of assay buffer, purified MMP (final concentration of 25 ng/ml, prepared by diluting with the assay buffer), and varied concentrations of inhibitor (prepared by serially diluting a given inhibitor in DMSO in 96-well polypropylene plate). […] The enzymatic reactions were initiated by adding the substrate to a final concentration of 20 μM, and mixing 10 times with a pipette. The final DMSO concentration in the assay was 6.0%.
Plots of the inhibitor concentration vs. the percent inhibition were fit to the following equation: y=(a−d)/[1+(x/c)^b]+d, a general sigmoidal curve with Hill slope, a to d. x is the inhibitor concentration under test. y is the percent inhibition. a is the limiting response as x approaches zero. As x increases without bound, y tends toward its limit d. c is the inflection point (IC50) for the curve. That is, y is halfway between the lower and upper asymptotes when x=c. b is the slope factor or Hill coefficient.

Consider `Cc1cc(COc2ccc(S(=O)(=O)N[C@H]3[C@@H](C(=O)NO)[C@@H]4CC[C@H]3O4)cc2)c2ccccc2n1` (relative stereo) [Example 2, exo-N-Hydroxy-3-[({4-[(2-methylquinolin-4-yl)methoxy]phenyl}sulfonyl)amino]-7-oxabicyclo[2.2.1]heptane-2-carboxamide], for which the IC50 in assay [1] (FRET, read-out: TACE IC50) is 0.0022 µM; in assay [2] it was 9.9 µM; at recombinant human MMP-2, over 16.7 µM; against MMP-13 it was over 16.7 µM.
With `Cc1cc(COc2ccc(S(=O)(=O)N[C@@H]3[C@@H]4CC[C@@H](C4)[C@@H]3C(=O)NO)cc2)c2ccccc2n1` (relative stereo) [Example 6, endo-N-Hydroxy-3-[({4-[(2-methylquinolin-4-yl)methoxy]phenyl}sulfonyl)amino]bicyclo[2.2.1]heptane-2-carboxamide], the IC50 in assay [1] (FRET, read-out: TACE IC50) was 0.001 µM; in assay [2], 47 µM; at recombinant human MMP-2 it was over 16.7 µM; against MMP-13, over 16.7 µM.
In the case of `Cc1cc(COc2ccc(S(=O)(=O)N[C@H]3[C@@H](C(=O)NO)[C@H]4C=C[C@@H]3C4)cc2)c2ccccc2n1` (relative stereo) [Example 7, endo-N-Hydroxy-3-[({4-[(2-methylquinolin-4-yl)methoxy]phenyl}sulfonyl)amino]bicyclo[2.2.1]hept-5-ene-2-carboxamide], the IC50 in assay [1] (FRET, read-out: TACE IC50) was 0.0012 µM; in assay [2], 34 µM; at recombinant human MMP-2, over 16.7 µM; against MMP-13, over 16.7 µM.
Consider `Cc1cc(COc2ccc(S(=O)(=O)N(C)[C@H]3[C@@H](C(=O)NO)[C@H]4C=C[C@@H]3C4)cc2)c2ccccc2n1` (relative stereo) [Example 8, endo-N-Hydroxy-3-[methyl({4-[(2-methylquinolin-4-yl)methoxy]phenyl}sulfonyl)amino]bicyclo[2.2.1]hept-5-ene-2-carboxamide], for which the IC50 was 0.0015 µM in assay [1] (FRET, read-out: TACE IC50); over 50 µM in assay [2]; over 16.7 µM at recombinant human MMP-2; over 16.7 µM against MMP-13.
On to `Cc1cc(COc2ccc(S(=O)(=O)N[C@H]3[C@@H](C(=O)NO)[C@@H]4C=C[C@H]3C4)cc2)c2ccccc2n1` (relative stereo) [Example 9, exo-N-Hydroxy-3-[({4-[(2-methylquinolin-4-yl)methoxy]phenyl}sulfonyl)amino]bicyclo[2.2.1] hept-5-ene-2-carboxamide], for which the IC50 was 0.0001 µM in assay [1] (FRET, read-out: TACE IC50); 9.3 µM in assay [2]; over 16.7 µM on recombinant human MMP-2; over 16.7 µM at MMP-13.
Turning to `Cc1cc(COc2ccc(S(=O)(=O)N[C@@H]3CC=CC[C@@H]3C(=O)NO)cc2)c2ccccc2n1` (relative stereo) [Example 10, cis-N-hydroxy-6-[({4-[(2-methylquinolin-4-yl)methoxy]phenyl}sulfonyl)amino]cyclohex-3-ene-1-carboxamide], the IC50 in assay [1] (FRET, read-out: TACE IC50) is 0.0011 µM; in assay [2], 4.2 µM; on recombinant human MMP-2, over 16.7 µM; at MMP-13, over 16.7 µM.
Take `Cc1cc(COc2ccc(S(=O)(=O)N[C@@H]3CCCC[C@@H]3C(=O)NO)cc2)c2ccccc2n1` (relative stereo) [Example 12, cis-N-hydroxy-2-[({4-[(2-methylquinolin-4-yl)methoxy]phenyl}sulfonyl)amino]cyclohexanecarboxamide]: the IC50 was 2.2 µM in assay [2], 0.08 µM in assay [3], over 16.7 µM on recombinant human MMP-2 and over 16.7 µM against MMP-13.
`Cc1cc(COc2ccc(S(=O)(=O)N[C@@H]3CNC[C@@H]3C(=O)NO)cc2)c2ccccc2n1` (relative stereo) [Example 22, cis-N-Hydroxy4-[({4-[(2-methylquinolin-4-yl)methoxy]phenyl}sulfonyl)amino]pyrrolidine-3-carboxamide]: the IC50 is 0.27 µM in assay [2], 0.09 µM in assay [3], over 16.7 µM on recombinant human MMP-2 and over 16.7 µM on MMP-13.
Turning to `Cc1cc(COc2ccc(S(=O)(=O)N(C)[C@H]3CCCC[C@@H]3C(=O)NO)cc2)c2ccccc2n1` (relative stereo) [Example 61, trans-N-hydroxy-2-[methyl({4-[(2-methylquinolin-4-yl)methoxy]phenyl}sulfonyl)amino]cyclohexanecarboxamide], the IC50 was 43 µM in assay [2], 0.911 µM in assay [3], over 16.7 µM on recombinant human MMP-2 and over 16.7 µM against MMP-13.
For `CN(C1C2CCC(C2)C1C(=O)NO)S(=O)(=O)c1ccc(OCc2ccc3ccccc3c2)cc1` (stereo in doubt) [Example 39, (1R,2S,3R,4S)-N-hydroxy-3-(methyl{[4-(2-naphthylmethoxy)phenyl]sulfonyl}amino)bicyclo[2.2.1]heptane-2-carboxamide], in assay [1] (FRET, read-out: TACE IC50), the IC50 is 0.172 µM.
As to `CN(C1C2CCC(C2)C1C(=O)NO)S(=O)(=O)c1ccc(OCc2ccc3nonc3c2)cc1` (stereo in doubt) [Example 40, (1R,2S,3R,4S)-3-[{[4-(2,1,3-benzoxadiazol-5-ylmethoxy)phenyl]sulfonyl}(methyl)amino]-N-hydroxybicyclo[2.2.1]heptane-2-carboxamide], in assay [1] (FRET, read-out: TACE IC50), the IC50 is 0.056 µM.
In the case of `Cc1cc(COc2ccc(S(=O)(=O)NC3C(C(=O)NO)C4CCC3N4C(=O)OC(C)(C)C)cc2)c2ccccc2n1` (stereo not drawn) [Example 37, tert-Butyl 2-[(hydroxyamino)carbonyl]-3-[({4-[(2-methylquinolin-4-yl)methoxy]phenyl}sulfonyl)amino]-7-azabicyclo[2.2.1]heptane-7-carboxylate], the IC50 is 0.01 µM in assay [1] (TACE IC50, FRET); 59 µM in assay [2]; over 16.7 µM on recombinant human MMP-2; over 16.7 µM on MMP-13.
`Cc1cc(COc2ccc(S(=O)(=O)NC3C4CCC(N4)C3C(=O)NO)cc2)c2ccccc2n1` (stereo not drawn) [Example 38, 3-[4-(2-Methyl-quinolin-4-ylmethoxy)-benzenesulfonylamino]-7-aza-bicyclo[2.2.1]heptane-2-carboxylic acid hydroxyamide]: the IC50 was 0.051 µM in assay [1] (TACE IC50, FRET); 26 µM in assay [2]; 8.68 µM on recombinant human MMP-2; over 16.7 µM on MMP-13.
Take `Cc1cc(COc2ccc(S(=O)(=O)N[C@@H]3CCC[C@]3(CO)C(=O)NO)cc2)c2ccccc2n1` [Example 58]: the IC50 stood at 14 µM in assay [2] and 0.44 µM in assay [3].

(Values after patent US7595327B2, “Beta-sulfonamide hydroxamic acid inhibitors of tace/matrix metalloproteinase” (priority 2005, dated 2009).)
